Experimental data reported in PubChem BioAssay AID1918955 (Molecular Pharmacology Branch, DTP, NCI, 2023).

Tested on: NCI/ADR-RES complex spheroid viability
Assay: Anticancer human tumor NCI/ADR-RES cell line growth inhibition;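 note: spheroids exposed to compounds for 7 days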;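 for viability, T/C: 100% = DMSO vehicle treated spheroids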
Conditions: for IC50: curve of first compound; for viability, T/C: stronger effect = lower value; active = viability on the fitted dose curve at most 10% of control; inactive = the rest
How it was run: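 Multicellular complex spheroids of tumor cells with human endothelial cells (HUVEC) and mesenchymal stem cells; the LSD1 inhibitor iadademstat was combined with standard-of-care or investigational agents. Top concentration at or near clinical Cmax, half-log dilutions; final DMSO ≤0.25%.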

[1] = second compound 0.1 µM, first compound 0.0316 µM
[2] = second compound 0.1 µM, first compound 0.1 µM
[3] = second compound 0.1 µM, first compound 0.316 µM
[4] = second compound 0.1 µM, first compound 1 µM
[5] = second compound 0.1 µM, first compound 3.16 µM
[6] = second compound 0.1 µM, first compound 10 µM
[7] = second compound 0.316 µM, first compound 0.0316 µM
[8] = second compound 0.316 µM, first compound 0.1 µM
[9] = second compound 0.316 µM, first compound 0.316 µM
[10] = second compound 0.316 µM, first compound 1 µM
[11] = second compound 0.316 µM, first compound 3.16 µM
[12] = second compound 0.316 µM, first compound 10 µM
[13] = second compound 1 µM, first compound 0.0316 µM
[14] = second compound 1 µM, first compound 0.1 µM
[15] = second compound 1 µM, first compound 0.316 µM
[16] = second compound 1 µM, first compound 1 µM
[17] = second compound 1 µM, first compound 3.16 µM
[18] = second compound 1 µM, first compound 10 µM
[19] = second compound 3.16 µM, first compound 0.0316 µM
[20] = second compound 3.16 µM, first compound 0.1 µM
[21] = second compound 3.16 µM, first compound 0.316 µM
[22] = second compound 3.16 µM, first compound 1 µM
[23] = second compound 3.16 µM, first compound 3.16 µM
[24] = second compound 3.16 µM, first compound 10 µM
[25] = second compound 10 µM, first compound 0.0316 µM
[26] = second compound 10 µM, first compound 0.1 µM
[27] = second compound 10 µM, first compound 0.316 µM
[28] = second compound 10 µM, first compound 1 µM
[29] = second compound 10 µM, first compound 3.16 µM
[30] = second compound 10 µM, first compound 10 µM
[31] = second compound 0.1 µM, first compound 0.00316 µM
[32] = second compound 0.1 µM, first compound 0.01 µM
[33] = second compound 0.316 µM, first compound 0.00316 µM
[34] = second compound 0.316 µM, first compound 0.01 µM
[35] = second compound 1 µM, first compound 0.00316 µM
[36] = second compound 1 µM, first compound 0.01 µM
[37] = second compound 3.16 µM, first compound 0.00316 µM
[38] = second compound 3.16 µM, first compound 0.01 µM
[39] = second compound 10 µM, first compound 0.00316 µM
[40] = second compound 10 µM, first compound 0.01 µM

CC(C)c1c(-c2ccccc2)nc2c(C#N)c[nH]n2c1=O + NC1CC1c1ccc(-c2cccc(O)c2)cc1
> 10000 nM: IC50 (second compound 0.1 µM) | IC50 (second compound 0.316 µM) | IC50 (second compound 1 µM) | IC50 (second compound 3.16 µM) | IC50 (second compound 10 µM)
inactive: viability, T/C [1] 104% | viability, T/C [2] 107% | viability, T/C [3] 102% | viability, T/C [4] 103% | viability, T/C [5] 108% | viability, T/C [6] 95.3% | viability, T/C [7] 113% | viability, T/C [8] 106% | viability, T/C [9] 104% | viability, T/C [10] 102% | viability, T/C [11] 109% | viability, T/C [12] 98.9% | viability, T/C [13] 109% | viability, T/C [14] 101% | viability, T/C [15] 106% | viability, T/C [16] 106% | viability, T/C [17] 100% | viability, T/C [18] 96.5% | viability, T/C [19] 106% | viability, T/C [20] 108% | viability, T/C [21] 106% | viability, T/C [22] 107% | viability, T/C [23] 97.6% | viability, T/C [24] 98.9% | viability, T/C [25] 87% | viability, T/C [26] 96.3% | viability, T/C [27] 91.7% | viability, T/C [28] 91.2% | viability, T/C [29] 89.2% | viability, T/C [30] 84.2%

CC1COCCN1c1cc(-c2ccnn2C)c2ccnc(-c3ccn[nH]3)c2n1 (stereo not given) + NC1CC1c1ccc(-c2cccc(O)c2)cc1
13.6 nM: IC50 (second compound 0.316 µM)
12.3 nM: IC50 (second compound 1 µM)
13 nM: IC50 (second compound 10 µM)
11.8 nM: IC50 (second compound 0.1 µM)
inactive: viability, T/C [31] 94.5% | viability, T/C [32] 56.5% | viability, T/C [1] 11.9% | viability, T/C [33] 93.9% | viability, T/C [34] 63.8% | viability, T/C [7] 11.9% | viability, T/C [35] 95.2% | viability, T/C [36] 57.5% | viability, T/C [13] 16.2% | viability, T/C [37] 92.3% | viability, T/C [38] 58.4% | viability, T/C [19] 16.9% | viability, T/C [39] 75.9% | viability, T/C [40] 58.6% | viability, T/C [25] 20.3%
active: viability, T/C [2] 2.87% | viability, T/C [3] 1.82% | viability, T/C [4] 1.99% | viability, T/C [8] 2.5% | viability, T/C [9] 2.17% | viability, T/C [10] 2.31% | viability, T/C [14] 2.46% | viability, T/C [15] 1.61% | viability, T/C [16] 1.71% | viability, T/C [20] 2.63% | viability, T/C [21] 1.85% | viability, T/C [22] 2.16% | viability, T/C [26] 4.64% | viability, T/C [27] 2.38% | viability, T/C [28] 2.48%
12.6 nM: IC50 (second compound 3.16 µM)

CC1COCCN1c1cc(C2(S(C)(=N)=O)CC2)nc(-c2ccnc3[nH]ccc23)n1 (stereo not given) + NC1CC1c1ccc(-c2cccc(O)c2)cc1
7000 nM: IC50 (second compound 0.1 µM)
inactive: viability, T/C [1] 108% | viability, T/C [2] 108% | viability, T/C [3] 97.4% | viability, T/C [4] 90% | viability, T/C [5] 71.5% | viability, T/C [6] 40.4% | viability, T/C [7] 110% | viability, T/C [8] 104% | viability, T/C [9] 103% | viability, T/C [10] 91.8% | viability, T/C [11] 73.2% | viability, T/C [12] 48.7% | viability, T/C [13] 96.4% | viability, T/C [14] 97.4% | viability, T/C [15] 93.8% | viability, T/C [16] 90.1% | viability, T/C [17] 64.8% | viability, T/C [18] 39.4% | viability, T/C [19] 101% | viability, T/C [20] 95.1% | viability, T/C [21] 95.8% | viability, T/C [22] 86% | viability, T/C [23] 65.4% | viability, T/C [24] 40.6% | viability, T/C [25] 93.2% | viability, T/C [26] 94.1% | viability, T/C [27] 84.9% | viability, T/C [28] 71.6% | viability, T/C [29] 61.3% | viability, T/C [30] 38.5%
6180 nM: IC50 (second compound 1 µM)
9410 nM: IC50 (second compound 0.316 µM)
5360 nM: IC50 (second compound 10 µM)
6480 nM: IC50 (second compound 3.16 µM)

COc1ccc([C@@H](O)c2cc(-c3ncnc4cc(N5CCOCC5)ccc34)c(F)cc2Cl)nn1 + NC1CC1c1ccc(-c2cccc(O)c2)cc1
inactive: viability, T/C [1] 106% | viability, T/C [2] 99.8% | viability, T/C [3] 84.8% | viability, T/C [4] 68.4% | viability, T/C [5] 50.7% | viability, T/C [6] 25.9% | viability, T/C [7] 106% | viability, T/C [8] 105% | viability, T/C [9] 92.7% | viability, T/C [10] 74% | viability, T/C [11] 51.4% | viability, T/C [12] 27.7% | viability, T/C [13] 105% | viability, T/C [14] 99.1% | viability, T/C [15] 90.6% | viability, T/C [16] 73.1% | viability, T/C [17] 50.5% | viability, T/C [18] 25.7% | viability, T/C [19] 101% | viability, T/C [20] 96% | viability, T/C [21] 83.4% | viability, T/C [22] 72.4% | viability, T/C [23] 50.5% | viability, T/C [24] 22.6% | viability, T/C [25] 84.6% | viability, T/C [26] 87.3% | viability, T/C [27] 77% | viability, T/C [28] 61.8% | viability, T/C [29] 41.4% | viability, T/C [30] 23.2%
3230 nM: IC50 (second compound 1 µM)
3240 nM: IC50 (second compound 0.316 µM)
3250 nM: IC50 (second compound 3.16 µM)
1940 nM: IC50 (second compound 10 µM)
3050 nM: IC50 (second compound 0.1 µM)

Nc1ncn(C2CC(O)C(CO)S2)c(=O)n1 (stereo not given) + NC1CC1c1ccc(-c2cccc(O)c2)cc1
7.52 nM: IC50 (second compound 0.316 µM)
6.82 nM: IC50 (second compound 1 µM)
5.54 nM: IC50 (second compound 3.16 µM)
inactive: viability, T/C (second compound 0.1 µM, first compound 0.000949 µM) 89.3% | viability, T/C (second compound 0.1 µM, first compound 0.003 µM) 66% | viability, T/C (second compound 0.1 µM, first compound 0.00949 µM) 44.7% | viability, T/C (second compound 0.1 µM, first compound 0.03 µM) 29.6% | viability, T/C (second compound 0.1 µM, first compound 0.0949 µM) 11.8% | viability, T/C (second compound 0.316 µM, first compound 0.000949 µM) 91.2% | viability, T/C (second compound 0.316 µM, first compound 0.003 µM) 62.5% | viability, T/C (second compound 0.316 µM, first compound 0.00949 µM) 47.8% | viability, T/C (second compound 0.316 µM, first compound 0.03 µM) 30.6% | viability, T/C (second compound 0.316 µM, first compound 0.0949 µM) 9.77% | viability, T/C (second compound 1 µM, first compound 0.000949 µM) 88.4% | viability, T/C (second compound 1 µM, first compound 0.003 µM) 68% | viability, T/C (second compound 1 µM, first compound 0.00949 µM) 41.2% | viability, T/C (second compound 1 µM, first compound 0.03 µM) 25.5% | viability, T/C (second compound 1 µM, first compound 0.0949 µM) 9.64% | viability, T/C (second compound 3.16 µM, first compound 0.000949 µM) 85.4% | viability, T/C (second compound 3.16 µM, first compound 0.003 µM) 58.3% | viability, T/C (second compound 3.16 µM, first compound 0.00949 µM) 43% | viability, T/C (second compound 3.16 µM, first compound 0.03 µM) 24.6% | viability, T/C (second compound 3.16 µM, first compound 0.0949 µM) 9.31% | viability, T/C (second compound 10 µM, first compound 0.000949 µM) 77% | viability, T/C (second compound 10 µM, first compound 0.003 µM) 54% | viability, T/C (second compound 10 µM, first compound 0.00949 µM) 38.6% | viability, T/C (second compound 10 µM, first compound 0.03 µM) 26.2% | viability, T/C (second compound 10 µM, first compound 0.0949 µM) 11.8%
4.48 nM: IC50 (second compound 10 µM)
active: viability, T/C (second compound 0.1 µM, first compound 0.3 µM) 2.46% | viability, T/C (second compound 0.316 µM, first compound 0.3 µM) 2.75% | viability, T/C (second compound 1 µM, first compound 0.3 µM) 2.79% | viability, T/C (second compound 3.16 µM, first compound 0.3 µM) 2.63% | viability, T/C (second compound 10 µM, first compound 0.3 µM) 3.24%
7.4 nM: IC50 (second compound 0.1 µM)

O=C(C=Cn1cnc(-c2cc(C(F)(F)F)cc(C(F)(F)F)c2)n1)NNc1cnccn1 + NC1CC1c1ccc(-c2cccc(O)c2)cc1
4.18 nM: IC50 (second compound 1 µM)
4.7 nM: IC50 (second compound 0.1 µM)
4.79 nM: IC50 (second compound 3.16 µM)
inactive: viability, T/C [31] 65.4% | viability, T/C [32] 19.6% | viability, T/C [33] 60.6% | viability, T/C [34] 23.3% | viability, T/C [7] 12.6% | viability, T/C [35] 59.5% | viability, T/C [36] 20.4% | viability, T/C [13] 13.9% | viability, T/C [37] 64.2% | viability, T/C [38] 22.7% | viability, T/C [19] 16.5% | viability, T/C [39] 57.1% | viability, T/C [40] 22.1% | viability, T/C [25] 16%
active: viability, T/C [1] 13% | viability, T/C [2] 6.61% | viability, T/C [3] 1.72% | viability, T/C [4] 0.88% | viability, T/C [8] 7.91% | viability, T/C [9] 2.06% | viability, T/C [10] 1.08% | viability, T/C [14] 8.19% | viability, T/C [15] 1.99% | viability, T/C [16] 0.85% | viability, T/C [20] 10.7% | viability, T/C [21] 2.96% | viability, T/C [22] 0.98% | viability, T/C [26] 10.1% | viability, T/C [27] 5.13% | viability, T/C [28] 2.52%
4.42 nM: IC50 (second compound 0.316 µM)
4.02 nM: IC50 (second compound 10 µM)
